Where “and” joins values, the source holds several entries; their conditions need not be identical. Identical values can stand only once. Blank lines part the entries; values can stand above or below the compound they belong to.
Assay: solvent given as SMILES

Structure (SMILES): CC(=O)c1c2c(cc3c(N(C)C)cccc13)CCC2
absorption maximum (in C1CCCCC1): 314 nm | absorption maximum (in C1CCOC1): 330 nm | absorption maximum (in C1COCCO1): 319 nm | absorption maximum (in CC#N): 316 nm | absorption maximum (in CCO): 334 nm | absorption maximum (in CS(C)=O): 334 nm | absorption maximum (in Cc1ccccc1): 322 nm | absorption maximum (in ClC(Cl)Cl): 334 nm | absorption maximum (in ClCCl): 334 nm

Structure (SMILES): CN(C)CCCN1c2ccccc2Sc2ccc(Cl)cc21
absorption maximum (in CC#N): 312 nm | absorption maximum (in CO): 311 nm | absorption maximum (in O): 307 nm

Structure (SMILES): Cc1cc(C)c(N(c2ccccc2)c2ccc(S(=O)(=O)c3ccc(S(=O)(=O)c4ccc(N(c5ccccc5)c5c(C)cc(C)cc5C)cc4)cc3)cc2)c(C)c1
absorption maximum (in Cc1ccccc1): 351 nm

Structure (SMILES): N#Cc1nn(-c2ccccc2)nc1N1CCCC1
absorption maximum (in CC#N): 340 nm

Structure (SMILES): Nc1cc([NH3+])cc(-c2nc3ccccc3s2)c1
absorption maximum (in O): 300 nm

Structure (SMILES): Cc1ccc2occ(CC(=O)NN)c2c1
absorption maximum (in C1CCOC1): 292 nm | absorption maximum (in CC#N): 289 nm | absorption maximum (in CC(C)=O): 293 nm | absorption maximum (in CCCCO): 290 nm | absorption maximum (in CCCO): 281 nm | absorption maximum (in CCO): 283 nm | absorption maximum (in CCOC(C)=O): 296 nm | absorption maximum (in CN(C)C=O): 313 nm | absorption maximum (in CO): 279 nm | absorption maximum (in ClCCl): 284 nm

Structure (SMILES): COc1ccc(/C=C/C2=NC(=C\c3ccncc3)/C(=O)N2C)cc1
absorption maximum (in C1COCCO1): 422 nm | absorption maximum (in CC#N): 428 nm | absorption maximum (in CCO): 433 nm | absorption maximum (in CCOC(C)=O): 423 nm | absorption maximum (in O): 425 nm

Structure (SMILES): COc1ccc(-n2c3ccccc3c3cc(/C=C/C(=C(C#N)C#N)c4ccccc4)ccc32)cc1
absorption maximum (in C1CCOC1): 448 nm | absorption maximum (in CC#N): 444 nm | absorption maximum (in CC(C)=O): 445 nm | absorption maximum (in CCOC(C)=O): 443 nm | absorption maximum (in CO): 449 nm | absorption maximum (in CS(C)=O): 454 nm | absorption maximum (in Cc1ccccc1): 450 nm | absorption maximum (in ClC(Cl)Cl): 459 nm

Structure (SMILES): CCCCCCOc1cc(/C=C/c2cc(OCCCCCC)c(/C=C/c3cc(OCCCCCC)c(C=C4C(=O)c5ccccc5C4=O)cc3OCCCCCC)cc2OCCCCCC)c(OCCCCCC)cc1C=C1C(=O)c2ccccc2C1=O
absorption maximum (in ClCCl): 550 nm

Structure (SMILES): COc1ccc(O)c(C=O)c1
absorption maximum (in CO): 359 nm | absorption maximum (in ClC(Cl)Cl): 364 nm

Structure (SMILES): C[C@]12SC(=O)C=C1c1nc(-c3ccc(Cl)cc3)[nH]c1C1=CC(=O)S[C@@]12C
absorption maximum (in CC#N): 451 nm

Structure (SMILES): C#CCNC1=C2C=CC=[N+]2[B-](F)(F)n2cccc21
absorption maximum (in C1CCCCC1): 422.5 nm and 426 nm | absorption maximum (in CC(C)=O): 406 nm | absorption maximum (in CCCCO): 406 nm | absorption maximum (in CCCO): 408 nm | absorption maximum (in CCO): 406.5 nm and 406 nm | absorption maximum (in CCOC(C)=O): 408.5 nm | absorption maximum (in CN(C)C=O): 404 nm | absorption maximum (in CO): 405 nm | absorption maximum (in CS(C)=O): 404 nm | absorption maximum (in Cc1ccccc1): 421 nm | absorption maximum (in ClC(Cl)Cl): 418 nm | absorption maximum (in OCC(F)(F)F): 404 nm | absorption maximum (in c1ccccc1): 422 nm

Structure (SMILES): C=CCNc1ccc2ccc3oc4cc(=[N+]5CCCC5)ccc-4nc3c2c1
absorption maximum (in CC#N): 576 nm | absorption maximum (in CCO): 570 nm | absorption maximum (in ClCCl): 588 nm | absorption maximum (in O): 556 nm

Structure (SMILES): COc1ccc(N(c2ccc(C=C(c3ccccc3)c3ccccc3)cc2)c2ccc(C=C(c3ccccc3)c3ccccc3)cc2)cc1
absorption maximum (in Cc1ccccc1): 397 nm

Structure (SMILES): CC[N+]1(CC)CN2C(=N1)C(C(=O)O)=Cc1cc(SC)ccc12
absorption maximum (in O): 397 nm

Structure (SMILES): CC(C)(C)c1ccc(-c2nc3ccccc3nc2-c2cc(-c3nc4ccccc4nc3-c3ccc(C(C)(C)C)cc3)cc(-n3c4ccccc4c4ccccc43)c2)cc1
absorption maximum (in Cc1ccccc1): 344 nm

Structure (SMILES): Cc1ccc(C)n1-c1ccc(C#N)cc1
absorption maximum (in C1CCOC1): 275 nm | absorption maximum (in CCCCCC): 275 nm | absorption maximum (in CCCCCl): 275 nm | absorption maximum (in CCOCC): 275 nm

Structure (SMILES): N#C/C(=C\c1ccc(Cl)cc1)c1nc2ccccc2s1
absorption maximum (in C1CCCCC1): 350 nm | absorption maximum (in CO): 350 nm

Structure (SMILES): CCOc1ccc(/C=C/C=C/C=C/c2ccc([N+](=O)[O-])cc2)cc1
absorption maximum (in CC1CCCCC1): 414 nm | absorption maximum (in CC#N): 412 nm | absorption maximum (in Cc1ccccc1): 419 nm | absorption maximum (in ClCCl): 420 nm

Structure (SMILES): Cc1ccc(C)n1-c1ccc(N(C)C)cc1
absorption maximum (in CC#N): 306 nm | absorption maximum (in CCCCCC): 304 nm

Structure (SMILES): CCN(CC)c1ccc2cc(/C=C/c3cccc[n+]3CCCS(=O)(=O)[O-])c(=O)oc2c1
absorption maximum (in C1CCOC1): 513 nm | absorption maximum (in CC#N): 486 nm | absorption maximum (in CC(C)=O): 530 nm | absorption maximum (in CS(C)=O): 494 nm | absorption maximum (in Cc1ccccc1): 487 nm | absorption maximum (in O): 481 nm | absorption maximum (in OCC(O)CO): 496 nm

Structure (SMILES): COc1ccc(-n2nc(C#N)c(N3CCCC3)n2)cc1OC
absorption maximum (in CC#N): 344 nm

Structure (SMILES): c1ccc(-c2nc(-c3ccc(N4c5ccccc5C(c5ccccc5)(c5ccccc5)c5ccccc54)cc3)cc(-c3ccc(N4c5ccccc5C(c5ccccc5)(c5ccccc5)c5ccccc54)cc3)n2)cc1
absorption maximum (in Cc1ccccc1): 373 nm

Structure (SMILES): Nc1ccccc1C(=O)O
absorption maximum (in C1CCCCC1): 338 nm | absorption maximum (in C1COCCO1): 338 nm | absorption maximum (in CC#N): 336 nm | absorption maximum (in CC(C)=O): 336 nm | absorption maximum (in CCO): 334 nm | absorption maximum (in CO): 334 nm | absorption maximum (in CS(C)=O): 342 nm | absorption maximum (in O): 290 nm and 310 nm | absorption maximum (in OCC(F)(F)F): 320 nm | absorption maximum (in c1ccccc1): 340 nm

Structure (SMILES): COc1ccc(C2=[N+]3C(=Nc4c(-c5cc(OC)c(OC)c(OC)c5)c(-c5ccc(C(C)(C)C)cc5)c(-c5ccc(OC)cc5)n4[B-]3(F)F)C(c3cc(OC)c(OC)c(OC)c3)=C2c2ccc(C(C)(C)C)cc2)cc1
absorption maximum (in Cc1ccccc1): 694 nm

Other lines, results leading:

absorption maximum (in C1CCOC1): 409 nm
Structure (SMILES): COc1cc2c(cc1-c1ccc([N+](=O)[O-])cc1)Cc1c3c(c4c(c1-2)-c1cc(OC)c(-c2ccc([N+](=O)[O-])cc2)cc1C4)C(=O)N(CCC(C)C)C3=O

absorption maximum (in CS(C)=O): 432 nm | absorption maximum (in ClC(Cl)Cl): 424 nm
Structure (SMILES): CCCCCCN(c1ccccc1)c1ccc(/C=C/c2cc(=O)oc3cc(C)ccc23)cc1

absorption maximum (in ClCCl): 325 nm
Structure (SMILES): c1ccc(-n2c3ccccc3c3cc(-n4ccc5cc(-c6cccc7c6-c6ccccc6C7(c6ccccc6)c6ccccc6)ccc54)ccc32)cc1

absorption maximum (in ClCCl): 352 nm
Structure (SMILES): CCCCn1c2ccc(C#N)cc2c2cc(C#N)cc(-c3ccc(N(c4ccccc4)c4ccccc4)cc3)c21

absorption maximum (in ClC(Cl)Cl): 380 nm
Structure (SMILES): CCCCCCN1C(=O)c2cccc3cc(/N=C\c4ccc(N(c5ccccc5)c5ccccc5)cc4)cc(c23)C1=O

absorption maximum (in ClCCl): 329 nm
Structure (SMILES): c1ccc(-n2nc(-c3ccc(N4c5ccccc5Sc5ccccc54)cc3)nc2-c2ccccn2)cc1

absorption maximum (in CC#N): 369 nm | absorption maximum (in CCCCCCC): 357 nm | absorption maximum (in CO): 367 nm | absorption maximum (in O): 378 nm
Structure (SMILES): O=[N+]([O-])c1ccc(/C=C/c2cn(S(=O)(=O)c3ccccc3)c3ccccc23)cc1

absorption maximum (in C1COCCO1): 340 nm
Structure (SMILES): CCC1=C(C2=C(C3=C(CC)S(=O)(=O)c4cc(-c5ccc(CO)cc5)ccc43)C(F)(F)C(F)(F)C2(F)F)c2ccc(-c3ccc(CO)cc3)cc2S1(=O)=O

absorption maximum (in ClC(Cl)Cl): 487 nm
Structure (SMILES): N#Cc1nc(N(Cc2ccccc2I)Cc2ccccc2I)c(C#N)nc1N(Cc1ccccc1I)Cc1ccccc1I

absorption maximum (in C1CCOC1): 362 nm
Structure (SMILES): CCC1(CC)c2cc(C#Cc3cccs3)ccc2-c2c1c1c(c3c2C(CC)(CC)c2cc(C#Cc4cccs4)ccc2-3)C(CC)(CC)c2cc(C#Cc3cccs3)ccc2-1

absorption maximum (in ClCCl): 430 nm
Structure (SMILES): CSc1nccc(/C=C/c2ccc(N(c3ccccc3)c3ccc(/C=C/c4ccnc(SC)n4)cc3)cc2)n1

From the Deep4Chem optical property database
